# Assay results from ChEMBL document CHEMBL1201862, “PubChem BioAssay data set” (2004).
#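 How tested: cells in 96-well plates exposed to compound for 48 hours at five concentrations. GI50 marks 50% less growth.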 Active and inactive are the calls of the source. No stated cut-off is given here; in the data, active = GI50 up to about 1.1 µM and inactive = higher.
# Key:
# Test in all cases: NCI anticancer screen, dose series, 48 h
# NCI-H522 = system: NCI-H522
# SF-268 = system: SF-268
# SK-OV-3 = system: SK-OV-3
# SR = system: SR
# EKVX = system: EKVX
# SNB-78 = system: SNB-78
# RPMI-8226 = system: RPMI-8226
# UACC-257 = system: UACC-257
# TK-10 = system: TK-10
# U-251 = system: U-251
# KM12 = system: KM12
# OVCAR-5 = system: OVCAR-5
# NCI-H226 = system: NCI-H226
# SK-MEL-5 = system: SK-MEL-5
# OVCAR-4 = system: OVCAR-4
# IGROV-1 = system: IGROV-1
# MCF7 = system: MCF7
# DU-145 = system: DU-145
# T47D = system: T47D
SMILES,GI50 (NCI-H522),GI50 (SF-268),GI50 (SK-OV-3),GI50 (SR),GI50 (EKVX),GI50 (SNB-78),GI50 (RPMI-8226),GI50 (UACC-257),GI50 (TK-10),GI50 (U-251),GI50 (KM12),GI50 (OVCAR-5),GI50 (NCI-H226),GI50 (SK-MEL-5),GI50 (OVCAR-4),GI50 (IGROV-1),GI50 (MCF7),GI50 (DU-145),GI50 (T47D)
Cc1cc(C)nc(NS(=O)(=O)c2ccc(NC(=O)c3cccc4c(Nc5ccc(S(=O)(=O)N=C(N)N)cc5)c5ccc(Cl)cc5nc34)cc2)n1,18.2 µM (inactive),41 µM (inactive),> 100 µM (inactive),27.1 µM (inactive),30.8 µM (inactive),40.6 µM (inactive),23.5 µM (inactive),20.2 µM (inactive),40 µM (inactive),15.8 µM (inactive),30.5 µM (inactive),> 100 µM (inactive),,,,,,,
COc1ccc2c(c1)CN1CCc3c(cc(OC)c(OC)c3OC)C1C2 (stereo not drawn),> 100 µM (inactive),> 100 µM (inactive),> 100 µM (inactive),> 100 µM (inactive),> 100 µM (inactive),> 100 µM (inactive),38.4 µM (inactive),> 100 µM (inactive),> 100 µM (inactive),> 100 µM (inactive),,64.1 µM (inactive),> 100 µM (inactive),36.5 µM (inactive),> 100 µM (inactive),> 100 µM (inactive),,,
CC(=O)OC(C)(C)/C=C/C(=O)[C@](C)(O)[C@H]1[C@H](O)C[C@@]2(C)[C@@H]3CC=C4[C@@H](C[C@H](O)[C@H](O)C4(C)C)[C@]3(C)C(=O)C[C@]12C,0.259 µM (active),0.397 µM (active),2.79 µM (inactive),0.224 µM (active),0.601 µM (active),0.453 µM (active),0.107 µM (active),0.638 µM (active),0.548 µM (active),0.687 µM (active),0.467 µM (active),0.883 µM (active),0.984 µM (active),0.701 µM (active),0.331 µM (active),0.925 µM (active),,,
COc1cc(C2c3cc4c(cc3[C@H](NC(=O)c3cccs3)C3COC(=O)[C@H]23)OCO4)cc(OC)c1OC (stereo partly drawn),< 0.01 µM (active),< 0.0195 µM (active),0.027 µM (active),0.0122 µM (active),0.0731 µM (active),> 100 µM (inactive),0.0134 µM (active),,> 40.9 µM (inactive),< 0.0148 µM (active),< 0.01 µM (active),> 46.9 µM (inactive),0.668 µM (active),< 0.014 µM (active),,0.0147 µM (active),< 0.01 µM (active),< 0.01 µM (active),46.7 µM (inactive)
ClCCNCCNCCCl.ClCCNCCNCCCl.[O-][Cl+3]([O-])([O-])O,11.4 µM (inactive),25.5 µM (inactive),> 100 µM (inactive),23.1 µM (inactive),> 100 µM (inactive),44.6 µM (inactive),33.3 µM (inactive),27 µM (inactive),49.9 µM (inactive),25.4 µM (inactive),> 100 µM (inactive),24.9 µM (inactive),> 100 µM (inactive),23 µM (inactive),22.3 µM (inactive),22.5 µM (inactive),,,
CC(C)(C)N/N=C(\C(=O)Nc1nnc(S)[nH]1)C1C(=O)Nc2ccccc2[S+]1[O-] (stereo not drawn),> 100 µM (inactive),> 100 µM (inactive),> 100 µM (inactive),> 100 µM (inactive),> 100 µM (inactive),> 100 µM (inactive),> 100 µM (inactive),> 100 µM (inactive),> 100 µM (inactive),> 100 µM (inactive),> 100 µM (inactive),> 100 µM (inactive),> 100 µM (inactive),> 100 µM (inactive),> 100 µM (inactive),> 100 µM (inactive),,,
O=C1c2ccccc2-c2ccccc2C(=O)C1(Br)Br,2.15 µM (inactive),14.2 µM (inactive),19.5 µM (inactive),2.02 µM (inactive),14.6 µM (inactive),8.11 µM (inactive),1.84 µM (inactive),10.7 µM (inactive),10.6 µM (inactive),15.8 µM (inactive),17.7 µM (inactive),18.1 µM (inactive),17.7 µM (inactive),17.3 µM (inactive),13.7 µM (inactive),14 µM (inactive),,,
